The record followed here is PMC9305971, “Development of [^18F]AmBF3 Tetrazine for Radiolabeling of Peptides: Preclinical Evaluation and PET Imaging of [^18F]AmBF3-PEG7-Tyr^3-Octreotide in an AR42J Pancreatic Carcinoma Model” (Bioconjugate Chemistry, 2022).

Data set [1] in a line: PET/CT and ex vivo biodistribution of [18F]6 in healthy mice. Set-up: species or system male SCID and female C57BL/6JRj mice. The note with it: i.v.; for bone uptake in tibia / gallbladder uptake: 270 min post injection. On the procedure:
[^18F]6 in 10% ethanol–0.01 M PBS was administered intravenously to male Fox Chase SCID mice (CB.17 SCID) (11.0 ± 0.5 MBq, ∼11 nmol, ∼150 μL, n = 4) and healthy female C57BL/6JRj mice (11.3 ± 0.3 MBq, ∼11 nmol, ∼150 μL, n = 4) under 2% isoflurane anesthesia. The PET/CT image was acquired with Inveon PET/CT for 60 min followed by a 15 min static scan 4 h after injection of the tracer. The images of the dynamic scan were reconstructed to time frames 60 × 10, 10 × 60, 4 × 300, and 3 × 600 s. After the second PET imaging (t = 270 ± 1.9 min post injection, n = 4), the organs were harvested and the radioactivity in each tissue sample was measured with a γ-counter and reported as a percentage of injected dose per gram of tissue (% ID/g). [^18F]15 was formulated in 4% ethanol in 0.01 M PBS and administered intravenously (0.2 nmol, 0.80 ± 0.30 MBq; tracer: 150 μL; tracer + blocking dose: 200 μL) to AR42J tumor-bearing Rj:NMRI-Foxn1^nu/nu mice (n = 4) under 2% isoflurane anesthesia. PET/CT images were acquired with Molecubes PET (β-CUBE) coupled with a CT (X-CUBE) (MOLECUBES NV, Ghent, Belgium) with two mice being imaged at the same time under 2% isoflurane anesthesia. Images were reconstructed to time frames 30 × 10, 15 × 60, 4 × 300, and 5 × 600 s. Quantitative image analysis was done with Carimas software (v 2.10, Turku PET Centre, Turku, Finland). Spherical ROIs were hand-drawn based on anatomical CT data and PET signal for the desired organs. The results are presented as standardized uptake values (SUVs).

Data set [2] can be described thus: Hydrolytic stability in 0.01 M PBS / formulated solution (radio-HPLC). In kind it is physicochemical. The note with it: t = 3 h, 0.01 M PBS, pH 7.4. On the procedure:
(§1) Lipophilicity was determined with the shake-flask method as a distribution coefficient between 0.01 M PBS and octanol. Purified radiotracer [^18F]6 (10 μL, ∼200 kBq, 1.5 nmol), [^18F]14 (20 μL, ∼260 kBq, 125 pmol), or [^18F]15 (20 μL, 144 kBq, 67 pmol) in a polypropylene tube containing 1500–2000 μL of each in a 1:1 mixture (1-octanol, 0.02 M PBS, pH 7.4) was shaken mechanically (500 rpm, 10 min) and centrifuged (1000g, 5 min), and samples from each layer (400 μL, n = 4) were measured with a γ-counter. The log D7.4 was calculated as a distribution between the two layers at pH 7.4. [^18F]6 (10 MBq, 40 nmol) diluted with 0.01 M PBS at pH 7.4 (≤1% ethanol, 5300 μL) was incubated for 180 min. At selected time points (5, 30, 60, 90, 120, 150, and 180 min), a sample (100 μL) was injected to radio-HPLC. [^18F]14 and [^18F]15 (29 MBq, 10 nmol) diluted in 2000 μL of 0.01 M PBS (≤1% ethanol) were left to incubate. A sample of [^18F]14 (100 μL) after 9 hours and [^18F]15 at selected time points between 30 and 335 min were injected into HPLC (method A). [^18F]15 (0.6 MBq, 0.134 nmol, 200 μL) formulated in ≤5% EtOH-1 × PBS was added and incubated in 2000 μL of PBS-50% human plasma at 37 °C. A 100 μL sample (at 60, 120, 180, and 240 min, n = 2) was diluted with 200 μL of cold acetonitrile and centrifuged (10,000g, 5 min). After centrifugation, a 100 μL sample of the supernatant was injected for radio-HPLC analysis.

Data set [3] can be described thus: Lipophilicity, shake-flask log D7.4 (1-octanol/PBS). The note with it: 1-octanol/PBS pH 7.4, n = 4. In kind it is physicochemical. As for the experimental part: as §1, with “analysis. […]” for “analysis.”
Lipophilicity. The lipophilicities were determined with the shake-flask method as a distribution profile between 0.01 M PBS and octanol at pH 7.4. The distribution of the radiolabeled compound between the octanol and the PBS layers was calculated according

For orientation: logD means lipophilicity at a set pH, counting ionised and neutral species. A higher logD goes with a more lipophilic compound. As for `C[N+](C)(CCNC(=O)Cc1ccc(-c2nncnn2)cc1)C[B-](F)(F)[18F]` [[^18F]6], in data set [1] (C57BL/6JRj female mice), the “bone uptake in tibia” value was found to be 0.4 ± 0.1 % ID/g and the gallbladder uptake is on record as 6.4 ± 2.5 % ID/g. Besides, in data set [1] (SCID male mice), the “bone uptake in tibia” value was found to be 0.3 ± 0.1 % ID/g and the gallbladder uptake turned out to be 3.5 ± 2.4 % ID/g. In addition, in data set [1] (PET/CT and ex vivo biodistribution 270 min post injection), the major elimination pathway result was “renal clearance”. Besides, the “hydrolytic stability, intact” value in data set [2] is no less than 99%. The molecule also returned a logD in data set [3] of -0.13 ± 0.06.
